Experimental data taken from patent US20060270648A1, “USE OF POLYAMINES WITH ANTIBIOTICS” (priority 2005, published 2006).
≈ marks a conversion by molar mass, not a printed value. Where two headings read alike, the source gives them in different places.

How the values were obtained:
[1] = tested on: Salmonella typhimurium LT2; conditions: for MICs in the indicated concentrations (mM) of polyamines: Spermine (1 mM): with 1 mM spermine; for MICs in the indicated concentrations (mM) of polyamines: Spermidine (20 mM): with 20 mM spermidine;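 for all read-outs here: Two-fold agar or broth dilution in Mueller-Hinton broth, MIC taken as lowest drug concentration without visible turbidity, tested alone or combined with polyamines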
[2] = tested on: MRSA Staphylococcus aureus 700699; test: MIC of antibiotics against MRSA Staphylococcus aureus 700699 with or without spermine; assay type: cell-based; conditions: for MIC: Staphylococcus aureus, MRSA, read-out: MICs in the absence or presence of spermine: No add; for MICs in the absence or presence of spermine: Spermine (1 mM): with 1 mM spermine
[3] = tested on: methicillin resistant Staphylococcus aureus (MRSA) Mu50; test: MIC of antibiotics against MRSA Mu50 with or without spermine; assay type: cell-based; conditions: for MIC: Staphylococcus aureus, MRSA, read-out: MICs in the presence or absence of spermine (1 mM): No add; for MIC / MICs in the presence or absence of spermine (1 mM): No add: no spermine; for MICs in the presence or absence of spermine (1 mM): Spermine: with 1 mM spermine
[4] = tested on: Salmonella typhimurium LT2; test: microbe, parasite or virus in culture; conditions: Salmonella enterica, read-out: MICs in the indicated concentrations (mM) of polyamines: No add;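 note: Two-fold agar or broth dilution in Mueller-Hinton broth, MIC taken as lowest drug concentration without visible turbidity, tested alone or combined with polyamines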
P. aeruginosa PAO1 = test: MIC of antibiotics against P. aeruginosa PAO1 with or without polyamines; assay type: cell-based
[5] = tested on: E. coli (K10, K12, C921-61); test: MIC of antibiotics against E. coli strains with or without polyamines (FIG. 3); assay type: cell-based; conditions: E. coli K10, K12, C921-61 and S. typhimurium LT2

| Compound | MICs in the indicated concentrations (mM) of polyamines: Spermine (1 mM) [1] | MICs in the indicated concentrations (mM) of polyamines: Spermidine (20 mM) [1] | MIC ([2]; no spermine) | MICs in the absence or presence of spermine: Spermine (1 mM) [2] | MIC [3] | MICs in the presence or absence of spermine (1 mM): Spermine [3] | MIC [4] | susceptibility with the combination of polyamines and antibiotics [5] | further results |
| --- | --- | --- | --- | --- | --- | --- | --- | --- | --- |
| CN(C)[C@@H]1C(O)=C(C(N)=O)C(=O)[C@@]2(O)C(O)=C3C(=O)c4c(O)cccc4[C@@](C)(O)[C@H]3C[C@@H]12 [Tetracycline] | 2 µg/mL | 2 µg/mL | 32 µg/mL | 4 µg/mL | 32 µg/mL | 8 µg/mL | 2 µg/mL (≈ 4.5 µM) | – | – |
| NC[C@H]1O[C@H](O[C@H]2[C@H](O)[C@@H](O[C@H]3O[C@H](CO)[C@@H](O)[C@H](N)[C@H]3O)[C@H](N)C[C@@H]2N)[C@H](O)[C@@H](O)[C@@H]1O [Kanamycin] | 2 µg/mL | 4 µg/mL | > 16 µg/mL | >16 µg/mL | – | – | 4 µg/mL (≈ 8.26 µM) | – | – |
| Cc1onc(-c2ccccc2Cl)c1C(=O)N[C@@H]1C(=O)N2[C@@H]1SC(C)(C)[C@@H]2C(=O)O [Cloxacillin] | – | – | > 256 µg/mL | 2 µg/mL | ≥ 256 µg/mL | 1 µg/mL | – | – | – |
| NCCCCCN [Cadaverine] | – | – | – | – | – | – | – | – | MICs to carbenicillin in the indicated concentration of polyamines (P. aeruginosa PAO1; 0 mM polyamine): 64 µg/mL; MICs to carbenicillin in the indicated concentration of polyamines (P. aeruginosa PAO1; 0.5 mM polyamine): 64 µg/mL; MICs to carbenicillin in the indicated concentration of polyamines (P. aeruginosa PAO1; 1 mM polyamine): 32 µg/mL; MICs to carbenicillin in the indicated concentration of polyamines (P. aeruginosa PAO1; 5 mM polyamine): 32 µg/mL; MICs to carbenicillin in the indicated concentration of polyamines (P. aeruginosa PAO1; 10 mM polyamine): 32 µg/mL; MICs to carbenicillin in the indicated concentration of polyamines (P. aeruginosa PAO1; 20 mM polyamine): 16 µg/mL |
| O=C(N[C@H](CO)[C@H](O)c1ccc([N+](=O)[O-])cc1)C(Cl)Cl [Chloramphenicol] | 1 µg/mL | 1 µg/mL | 8 µg/mL | 2 µg/mL | 8 µg/mL | 2 µg/mL | 2 µg/mL (≈ 6.19 µM) | improved susceptibility | – |
| CC1(C)S[C@@H]2[C@H](NC(=O)[C@H](N)c3ccccc3)C(=O)N2[C@H]1C(=O)O [Ampicillin] | – | – | ≥ 32 µg/mL | 2 µg/mL | ≥ 32 µg/mL | 2 µg/mL | 16 µg/mL (≈ 45.8 µM) | improved susceptibility | – |
| O=C(Cc1cccs1)N[C@@H]1C(=O)N2C(C(=O)[O-])=C(C[n+]3ccccc3)CS[C@H]12 [Cephaloridine] | – | – | 16 µg/mL | 0.25 µg/mL | 16 µg/mL | 0.25 µg/mL | – | – | – |
| CC1(C)S[C@@H]2[C@H](NC(=O)[C@H](N)c3ccc(O)cc3)C(=O)N2[C@H]1C(=O)O [Amoxicillin] | – | – | 16 µg/mL | 0.5 µg/mL | 16 µg/mL | 0.5 µg/mL | – | – | – |
| CC(=O)OCC1=C(C(=O)O)N2C(=O)[C@@H](NC(=O)Cc3cccs3)[C@H]2SC1 [Cephalothin] | – | – | 32 µg/mL | 4 µg/mL | 32 µg/mL | 4 µg/mL | – | – | – |
| CN[C@H](CC(C)C)C(=O)N[C@H]1C(=O)N[C@@H](CC(N)=O)C(=O)N[C@H]2C(=O)N[C@H]3C(=O)N[C@H](C(=O)N[C@H](C(=O)O)c4cc(O)cc(O)c4-c4cc3ccc4O)[C@H](O)c3ccc(c(Cl)c3)Oc3cc2cc(c3O[C@@H]2O[C@H](CO)[C@@H](O)[C@H](O)[C@H]2O[C@H]2C[C@](C)(N)[C@H](O)[C@H](C)O2)Oc2ccc(cc2Cl)[C@H]1O [Vancomycin] | – | – | – | 4 µg/mL | – | – | – | – | MIC [2]: 4 µg/mL |
| CN[C@@H]1[C@H](O)[C@H](NC)[C@H]2O[C@@]3(O)C(=O)C[C@@H](C)O[C@H]3O[C@@H]2[C@H]1O [Spectinomycin] | 32 µg/mL | 32 µg/mL | – | – | – | – | 32 µg/mL (≈ 96.3 µM) | improved susceptibility | – |
| CO/N=C(\C(=O)N[C@@H]1C(=O)N2C(C(=O)O)=C(COC(C)=O)CS[C@H]12)c1csc(N)n1 [Cefotaxime] | – | – | 128 µg/mL | 1 µg/mL | 128 µg/mL | 1 µg/mL | – | – | – |
| NCCCCN [Putrescine] | – | – | – | – | – | – | – | – | MICs to carbenicillin in the indicated concentration of polyamines (P. aeruginosa PAO1; 0 mM polyamine): 64 µg/mL; MICs to carbenicillin in the indicated concentration of polyamines (P. aeruginosa PAO1; 0.5 mM polyamine): 64 µg/mL; MICs to carbenicillin in the indicated concentration of polyamines (P. aeruginosa PAO1; 1 mM polyamine): 32 µg/mL; MICs to carbenicillin in the indicated concentration of polyamines (P. aeruginosa PAO1; 5 mM polyamine): 32 µg/mL; MICs to carbenicillin in the indicated concentration of polyamines (P. aeruginosa PAO1; 10 mM polyamine): 32 µg/mL; MICs to carbenicillin in the indicated concentration of polyamines (P. aeruginosa PAO1; 20 mM polyamine): 16 µg/mL |
| CCN1CCN(C(=O)N[C@@H](C(=O)N[C@@H]2C(=O)N3C(C(=O)O)=C(CSc4nnnn4C)CS[C@H]23)c2ccc(O)cc2)C(=O)C1=O [Cefoperazone] | – | – | > 512 µg/mL | >4 µg/mL | > 512 µg/mL | 16 µg/mL | – | – | – |
| CC1(C)S[C@@H]2[C@H](NC(=O)[C@H](C(=O)O)c3ccsc3)C(=O)N2[C@H]1C(=O)O [Ticarcillin] | 0.5 µg/mL | 1 µg/mL | 256 µg/mL | 4 µg/mL | 256 µg/mL | 4 µg/mL | 4 µg/mL (≈ 10.4 µM) | improved susceptibility | – |
| CC(C)(O/N=C(\C(=O)N[C@@H]1C(=O)N2C(C(=O)[O-])=C(C[n+]3ccccc3)CS[C@H]12)c1csc(N)n1)C(=O)O [Ceftazidime] | – | – | 256 µg/mL | 4 µg/mL | 256 µg/mL | 4 µg/mL | – | – | – |
| CC1(C)S[C@@H]2[C@H](NC(=O)[C@H](NC(=O)N3CCNC3=O)c3ccccc3)C(=O)N2[C@H]1C(=O)O [Azlocillin] | 4 µg/mL | 1 µg/mL | 16 µg/mL | 0.5 µg/mL | 16 µg/mL | 0.5 µg/mL | 16 µg/mL (≈ 34.7 µM) | improved susceptibility | – |
| CO/N=C(\C(=O)N[C@@H]1C(=O)N2C(C(=O)O)=C(CSc3nc(=O)c(=O)[nH]n3C)CS[C@H]12)c1csc(N)n1 [Ceftriaxone] | – | – | > 512 µg/mL | 16 µg/mL | > 512 µg/mL | 16 µg/mL | – | – | – |
| CO[C@@]1(NC(=O)C(C(=O)O)c2ccc(O)cc2)C(=O)N2C(C(=O)O)=C(CSc3nnnn3C)CO[C@@H]21 (stereo partly drawn) [Moxalactam] | – | – | > 512 µg/mL | >32 µg/mL | – | – | – | – | – |
| CC(=O)OCC1=C(C(=O)O)N2C(=O)[C@@H](NC(=O)CCC[C@@H](N)C(=O)O)[C@H]2SC1 [Cephalosporin C] | – | – | – | >128 µg/mL | – | – | – | – | MICs in the absence or presence of spermine: No add ([2]; no spermine): >512 µg/mL |
| Gentamicin | – | – | – | 256 µg/mL | – | – | – | – | MICs in the absence or presence of spermine: No add ([2]; no spermine): 256 µg/mL |
| C[C@H]1[C@H](NC(=O)/C(=N\OC(C)(C)C(=O)O)c2csc(N)n2)C(=O)N1S(=O)(=O)O [Aztreonam] | – | – | > 1020 µg/mL | >256 µg/mL | – | – | – | – | – |
| Cc1onc(-c2ccccc2)c1C(=O)N[C@@H]1C(=O)N2[C@@H]1SC(C)(C)[C@@H]2C(=O)O [Oxacillin] | – | 64 µg/mL | ≥ 256 µg/mL | 2 µg/mL | ≥ 256 µg/mL | 1 µg/mL | 256 µg/mL (≈ 638 µM) | improved susceptibility | decrease of MIC with exogenous spermine ([3]; spermine 1 mM and less): over 100 fold |
| CCN1CCN(C(=O)N[C@@H](C(=O)N[C@@H]2C(=O)N3[C@@H]2SC(C)(C)[C@@H]3C(=O)O)c2ccccc2)C(=O)C1=O [Piperacillin] | 0.5 µg/mL | 0.25 µg/mL | 32 µg/mL | 2 µg/mL | 32 µg/mL | 2 µg/mL | 4 µg/mL (≈ 7.73 µM) | improved susceptibility | – |
| CCn1cc(C(=O)O)c(=O)c2cc(F)c(N3CCNCC3)cc21 [Norfioxacin] | – | – | – | – | – | 64 µg/mL | – | – | MICs in the presence or absence of spermine (1 mM): No add [3]: 128 µg/mL |
| CC1(C)S[C@@H]2[C@H](NC(=O)Cc3ccccc3)C(=O)N2[C@H]1C(=O)O [Penicillin G] | 2 µg/mL | 2 µg/mL | – | 0.25 µg/mL | – | 0.25 µg/mL | – | improved susceptibility | MICs in the indicated concentrations (mM) of polyamines: No add ([1]; no polyamine): 16 µg/mL; MICs in the absence or presence of spermine: No add ([2]; no spermine): 16 µg/mL; MICs in the presence or absence of spermine (1 mM): No add [3]: 16 µg/mL |
